Assay results from PMC9692523, “Exposure to (Poly)phenol Metabolites after a Fruit and Vegetable Supplement Intake: A Double-Blind, Cross-Over, Randomized Trial” (Nutrients, 2022).

Assays:
[1] = Urinary excretion of phenolic metabolites over 48 h after one 450 mg capsule of the supplement (UHPLC-ESI-MS/MS); type: in vivo, human; conditions: urine, n = 10, mean ± SEM; for Urinary excretion 0 (h): baseline (day before)
Description: (§1) This study was designed as a 3-week randomized, double-blind, cross-over clinical trial. Eligible participants were randomized using simple block randomization of 1:1. Once enrolled, subjects received either one 450 mg capsule of the test supplement or one 450 mg capsule of placebo on the first day of the study (Phase I: D1). After three days of sampling, volunteers started a wash-out period of 1 week and were then enrolled for the second test Phase with ingestion of the opposite supplement (Phase II: D1) (Figure 1). The placebo product was 100% maltodextrin, which was (poly)phenol-free.
Urine samples were collected the day before (baseline) and during the 48 h period following the supplementation (T0-T3, T3-T6, T6-T10, T10-T14, T14-T24, T24-T32 and T32-T48) (Figure 2). Urine volumes at each collection period were registered, and samples were aliquoted and stored at −80 °C until further processing.
Then, urine samples were prepared as previously reported by Brindani and colleagues. Briefly, urine samples were defrosted, vortexed, diluted in 0.1% formic acid in water (1:4, v/v) and centrifuged at 12,000 rpm for 5 min. Finally, urine samples were filtered (0.45 µm nylon filter) prior to UHPLC-ESI-MS/MS analysis.
(§2) Plasma and urine samples were analyzed by a UHPLC DIONEX Ultimate 3000 equipped with a triple quadrupole TSQ Vantage (Thermo Fisher Scientific Inc) fitted with a heated ESI (H-ESI) (Thermo Fisher Scientific Inc) probe, as previously reported. Separations were carried out by means of a Kinetex EVO C18 (100 × 2.1 mm) column, 2.6 µm particle size (Phenomenex, Torrance, CA, USA), installed with a pre-column (Phenomenex). Mobile phase A was 0.2% formic acid in water, and mobile phase B was acetonitrile containing 0.2% formic acid. The gradient started with 5% B, and isocratic conditions were maintained for 0.5 min, reaching 95% B after 6.5 min, followed by 1 min at 95%. The starting gradient was then immediately re-established and maintained for 5 min to re-equilibrate the column. The flow rate was 0.4 mL/min, the injection volume was 5 µL and the column temperature was set at 40 °C.
(§3) The applied MS method consisted of the selective determination of each target precursor ion by the acquisition of characteristic product ion in selective reaction monitoring (SRM) mode (Supplemental Table S2). For all the analyses, the spray voltage was set at 3 kV, the vaporizer temperature at 300 °C and the capillary temperature operated at 270 °C. The sheath gas flow was 50 units, and auxiliary gas pressure was set to 10 units. Ultra-high purity argon gas was used for collision-induced dissociation (CID). The S-lens values were defined for each compound based on infusion parameter optimization. Conversely, for those compounds not available for infusion, the S-lens values were set using the values obtained for the chemically closest available standards. Quantification was performed with calibration curves of standards when available or using the most structurally similar compound. Data processing was performed using Xcalibur software (Thermo Scientific Inc., San Jose, CA, USA).
All data were expressed as mean values ± standard deviation (SD) and mean values ± standard error to the mean (SEM) for metabolites in blood and urine samples. PKSolver add-on program in Microsoft Excel was used to determine pharmacokinetic parameters of blood phenolic metabolites, including time to reach the maximum plasma concentration (Tmax, h), maximum plasma concentration (Cmax, nmol/L), area under the curve (AUC0-24, nmol/L·h), and time of presence of metabolites in circulation (Tpres, h). Tpres was calculated by taking the time interval between the first appearance and the last appearance of the considered metabolite. Coefficient of variation (CV) was evaluated for each metabolite and multivariate principal component analysis (PCA) was applied to explore the inter-individual variation in the urinary metabolites among the participants. […]

[2] = Plasma pharmacokinetics of phenolic metabolites after one 450 mg capsule of the supplement (UHPLC-ESI-MS/MS); type: in vivo, human; conditions: for Cmax / Tmax / Tpres (time of presence of metabolites in circulation): n = 10, mean ± SEM; for Tpres (time of presence of metabolites in circulation): interval between first and last appearance; for AUC0-24: supplemented volunteers (n = 10), 450 mg capsule, mean ± SEM
Description: as §1
On the day of the test (D1), volunteers visited the Research Center after an overnight fast. Blood was collected at T0 to determine baseline levels of plasma phenolic metabolites. Then, volunteers were invited to take the 450 mg capsule of the supplement or the placebo with 250 mL of still water (Figure 2). Additional blood samples were then collected at 1 h (D1, T1), 2 h (D1, T2), 3 h (D1, T3), 4 h (D1, T4), 5 h (D1, T5), 6 h (D1, T6), 8 h (D1, T8), 10 h (D1, T10) and 24 h (D2, T24) after capsule intake. Blood was taken from the basilica vein and centrifuged at 3000 rpm for 10 min at 4 °C. Plasma was immediately extracted and frozen at −80 °C for further analysis.
Plasma samples were then extracted using a solid phase extraction (SPE) method, as previously reported by Castello and colleagues. Briefly, 350 µL of plasma samples was diluted (1:1) with phosphoric acid 4% (v/v). After plate activation, 600 µL of the diluted plasma samples was loaded on a 96 well µ-SPE HLB (Oasis® HLB µElution Plate 30 µm, Waters, Milford, Massachusetts, MA, USA). Samples were washed with 200 µL of water and 200 µL of 0.2% (v/v) acetic acid. Finally, samples were eluted with 60 µL of methanol for UHPLC-ESI-MS/MS analysis.
as §2, §3
All data were expressed as mean values ± standard deviation (SD) and mean values ± standard error to the mean (SEM) for metabolites in blood and urine samples. […]

SMILES: O=C(O)CCc1ccc(O)c(OS(=O)(=O)O)c1 [compound 41]
- Urinary excretion 0 (h) [1]: 27.49 ± 27.49 µg
- Urinary excretion 0–3 (h) [1]: 101.08 ± 52.47 µg
- Urinary excretion 3–6 (h) [1]: 103.59 ± 54.34 µg
- Urinary excretion 6–10 (h) [1]: 41.08 ± 16.51 µg
- Urinary excretion 10–14 (h) [1]: 56.67 ± 24.78 µg
- Urinary excretion 14–24 (h) [1]: 389.70 ± 95.00 µg
- Urinary excretion 24–32 (h) [1]: 208.69 ± 73.47 µg
- Urinary excretion 32–48 (h) [1]: 289.45 ± 118.16 µg
- Urinary excretion Total (0–48 h) [1]: 1217.76 ± 256.95 µg
- Cmax [2]: 18.2 ± 11.3 nM
- Tmax [2]: 4.56 ± 1.13 h
- Tpres (time of presence of metabolites in circulation) [2]: 9.06 ± 2.56 h
- AUC0-24 [2]: 0.02741 ± 0.01121 µM·h

SMILES: O=C1CCC(Cc2cccc(OS(=O)(=O)O)c2)O1 (stereo not drawn) [compound 23]
- Urinary excretion 0 (h) [1]: 41.07 ± 30.35 µg
- Urinary excretion 0–3 (h) [1]: 4.29 ± 2.19 µg
- Urinary excretion 3–6 (h) [1]: 52.98 ± 22.54 µg
- Urinary excretion 6–10 (h) [1]: 175.24 ± 98.80 µg
- Urinary excretion 10–14 (h) [1]: 76.01 ± 39.48 µg
- Urinary excretion 14–24 (h) [1]: 345.14 ± 198.47 µg
- Urinary excretion 24–32 (h) [1]: 100.92 ± 46.88 µg
- Urinary excretion 32–48 (h) [1]: 34.61 ± 16.03 µg
- Urinary excretion Total (0–48 h) [1]: 830.26 ± 275.43 µg
- Cmax [2]: 2.15 ± 0.48 nM
- Tmax [2]: 8.22 ± 2.13 h
- Tpres (time of presence of metabolites in circulation) [2]: 9.33 ± 2.45 h
- AUC0-24 [2]: 0.01011 ± 0.00389 µM·h

SMILES: O=C1CCC(Cc2cc(O)cc(OS(=O)(=O)O)c2)O1 (stereo not drawn) [compound 16]
- Urinary excretion 0 (h) [1]: 18.25 ± 10.84 µg
- Urinary excretion 0–3 (h) [1]: 4.64 ± 3.47 µg
- Urinary excretion 3–6 (h) [1]: 439.69 ± 219.42 µg
- Urinary excretion 6–10 (h) [1]: 1256.55 ± 516.93 µg
- Urinary excretion 10–14 (h) [1]: 944.18 ± 474.02 µg
- Urinary excretion 14–24 (h) [1]: 3986.28 ± 711.64 µg
- Urinary excretion 24–32 (h) [1]: 1721.60 ± 393.97 µg
- Urinary excretion 32–48 (h) [1]: 586.15 ± 240.93 µg
- Urinary excretion Total (0–48 h) [1]: 8957.33 ± 1361.49 µg
- Cmax [2]: 9.97 ± 4.31 nM
- Tmax [2]: 8.88 ± 2.41 h
- Tpres (time of presence of metabolites in circulation) [2]: 10.57 ± 2.72 h
- AUC0-24 [2]: 0.03046 ± 0.01185 µM·h
